Literature values in patent US20260117185A1, “ENHANCEMENT OF FIBROBLAST PLASTICITY FOR TREATMENT OF DISC DEGENERATION” (SPINALCYTE, LLC, priority 2018, published 2026).

Columns and labels:
[1] = system: mesenchymal stem cells; settings: culture of cells with valproic acid
[2] = system: in vitro pre-mature senescence model; settings: valproic acid treatment
[3] = through the suppression of the p16/p21 pathway

## CCCC(CCC)C(=O)O [valproic acid]
[1]
  immune regulatory and metabolic properties of mesenchymal stem cells: enhanced immune regulatory and metabolic properties
[2]
  G2/M phase blockage derived from the senescence stress: inhibited the G2/M phase blockage
[2]; [3]
  apoptosis: inhibited apoptosis
  cell proliferation: increased cell proliferation
